Assay results: patent EP3454861B1, “BENZOXAZINE OR QUINAZOLINE DERIVATIVES FOR USE IN THE TREATMENT OF ALZHEIMER'S DISEASE” (Biocodex, priority 2016, dated 2017)

What was measured:
Type in all cases: in vivo, souris
[1] = test system: modèle murin de maladie d'Alzheimer par administration du peptide amyloïde β25-35; assay: Passive avoidance test (long-term contextual memory), retention session, Aβ25-35 mouse model; details: Aβ25-35 9 nmol ICV, day 10
Text: (§1) Le 1^er jour : une version « mélangée » (scrambled) du peptide amyloïde β25-35 (Sc.Aβ, témoin négatif) ou le peptide amyloïde β25-35 (Aβ25-35) est injecté par voie intra-cérébroventriculaire (ICV) (le peptide Aβ25-35 provoque l'intoxication cellulaire). Entre le 1^er jour et le 10^ème jour, les traitements sont administrés une fois par jour par voie intrapéritonéale (IP).

peroxydation lipidique = assay: Lipid peroxidation measurement in mouse hippocampus (colorimetric, CHP equivalents); details: Etifoxine 12,5-50 mg/kg per day IP, Aβ25-35 ICV, day 10
Text: as §1
(§2) A la fin de la session de rétention d'évitement passif, le 10^ème jour, les animaux sont sacrifiés par décapitation. L'hippocampe et le cortex frontal sont disséqués et congelés dans l'azote liquide. L'hippocampe est utilisé pour mesurer le taux de peroxydation lipidique à l'aide d'une méthode colorimétrique et pour évaluer les taux de 4 marqueurs biochimiques par des tests ELISA. Le cortex est conservé à -80°C en attente d'analyses supplémentaires. Les plasmas sont également conservés en attente d'analyses supplémentaires. Les échantillons biologiques sont jetés après 3 mois.
Les souris de chaque groupe sont sacrifiées par décapitation et les deux hippocampes sont prélevés, pesés et conservés dans de l'azote liquide jusqu'à l'analyse. […] Après avoir lu l'absorbance à 580 nm (A5801), 10 µl d'hyperoxyde de cumène (CHP) (1 mM) sont ajoutés à l'échantillon et il est incubé pendant 30 minutes à température ambiante pour déterminer le degré d'oxydation maximal. L'absorbance est mesurée à 580 nm (A5802). […]

Bcl2 = assay: ELISA of Bcl2 in mouse hippocampus after Aβ25-35
Text: as §1, §2
Pour tous les dosages, les […] sont homogénéisés, après décongélation, dans un tampon Tris (Tris 50 mM, 150 mM NaCl, pH 7,5) et traités par ultrasons pendant 20 secondes. […] Pour chaque dosage, l'absorbance est lue à 450 nm et la concentration est calculée en utilisant la courbe standard. Les résultats sont exprimés en pg ou ng de marqueur par mg de tissu et en pourcentage de solution Sc.Aβ + véhicule. 6 échantillons par groupe (n = 36 kits ELISA) sont dosés en double.

CCNC1=Nc2ccc(Cl)cc2C(C)(c2ccccc2)O1 (stereo not shown) [Etifoxine, chlorhydratede 6-chloro-2-éthylamino-4-méthyl-4-phényl-4H-[3,1]benzoxazine]
temps de fuite lors de la session de rétention, Moyenne ([1]; Etifoxine 25 mg/kg IP once daily): 22,4 ± 2,4% | temps de fuite lors de la session de rétention, Moyenne ([1]; Etifoxine 50 mg/kg IP once daily): 21,6 ± 3,0% | temps de latence lors la session de rétention, Moyenne ([1]; Etifoxine 12,5 mg/kg IP once daily): 208,1 ± 17,4% | peroxydation lipidique dans l'hippocampe (stress oxydatif induit par Aβ25-35) (peroxydation lipidique): diminuer de manière dose-sensible le stress oxydatif | Taux de protéine Bcl2 (Bcl2; Aβ25-35/Etifoxine 12.5 mg/kg IP): 97,2 ± 2,1 % de Sc.Aβ/V | Taux de protéine Bcl2 (Bcl2; Aβ25-35/Etifoxine 25 mg/kg IP): 99,4 ± 2,3 % de Sc.Aβ/V | Taux de protéine Bcl2 (Bcl2; Aβ25-35/Etifoxine 50 mg/kg IP): 102,3 ± 3,2 % de Sc.Aβ/V
